Source: paper PMC8293625, “HLA class-I-peptide stability mediates CD8^+ T cell immunodominance hierarchies and facilitates HLA-associated immune control of HIV” (Cell Reports, 2021)

Key:
[1] = biological target: HLA-A*0301 on TAP-deficient mono-allelic 721.221 cells (human | human (endogenous in 721.221)); test: flow cytometry on cells
[2] = biological target: Soluble HLA-A*0301 monomer (heavy chain and β2-microglobulin); test: differential scanning fluorimetry (thermal denaturation)
HLA-B*5701 [3] = biological target: T1, HLA-B*5701 (Homo sapiens, UniProt P01889, D201E/D98Y/E176V/E187L/E204Q/E69M/E70A/G107R/I90N/K202T/L105A/L119I/N104I/N87E/Q89R/Q94S/R106L/R155S/R180L/R86G/S101N/S121V/S35A/S48A/T118I/V36M/Y140S/Y91M); test: Thermal denaturation (differential scanning fluorimetry) of soluble HLA class I-peptide monomers; assay type: binding; conditions: DSF, 2 μM pMHC, SYPRO orange; representative, performed twice as technical triplicates (Fig S4B)
Procedure: (§1) To confirm these observations and further validate the cell-based stability assay, we used an orthogonal approach to evaluate the relationship between HLA class-I-peptide stability and ID by assessing thermal denaturation of soluble HLA class-I-peptide complexes ([Hellman et al., 2016]). In this assay, soluble HLA class-I monomers with bound peptide are incubated in the presence of an environmentally sensitive fluorescent molecule whose fluorescence is enhanced when bound to exposed hydrophobic surfaces during protein unfolding. As a result, the thermal stability (Tm, defined as the temperature at which 50% of the protein is unfolded) of an HLA class-I-peptide complex can be determined by fluorometric measurements during incremental temperature increases, which serve as a proxy for the stabilizing capacity of a bound epitope ([Hellman et al., 2016]).
(§2) This relative difference in Tm between ID and SubD epitopes was also observed for HLA-A^∗02 and HLA-B^∗57 (Figure S4) and collectively was statistically significant (Figure 3C).
(§3) Expression, refold and purification of the soluble constructs of the pMHCs were performed as previously described ([Pierce et al., 2014]). Briefly, the HLA-A^∗02, HLA-A^∗03 and HLA-B^∗57 heavy chains, and β2-microglobulin were expressed in Escherichia coli and purified as inclusion bodies (IBs). The IBs were solubilized in 8M Urea. Target peptides were provided by the MGH Peptide Core. […]
(§4) Differential scanning fluorimetry was performed using a Bio-RAD CFX96 real time PCR system as previously described. Briefly, the excitation and emission wavelengths were set to 587 and 607 nm respectively, and the fluorescence intensity was measured after every 1°C rise in temperature starting from 20°C and going up to 95°C. […] Apparent Tm values were calculated by identifying the point at which the melting transition was 50% complete.

[4] = tested on: HLA class-I alleles A*0101, A*0201, A*0301, A*2402, B*0702, B*0801, B*1402, B*1501, B*2705, B*3501, B*3901, B*4001, B*4402, B*5201, B*5701, B*5801, B*8101 …; assay type: cell-based, human; conditions: section B*58, TAP-deficient mono-allelic 721.221 cells, relative anti-HLA MFI
HLA-B*5701 [5] = biological target: T1, HLA-B*5701; test: Cell-based HLA class I-peptide concentration-based stability assay (TAP-deficient mono-allelic 721.221 cells); conditions: section B*57, TAP-deficient mono-allelic 721.221 cells, relative anti-HLA MFI
Procedure: (§5) Controls without peptide, but the corresponding concentration of DMSO, were performed in parallel.

HLA-A*0301 [6] = biological target: T2, HLA-A*0301 (Homo sapiens, UniProt P04439); test: Thermal denaturation (differential scanning fluorimetry) of soluble HLA class I-peptide monomers; assay type: binding; conditions: DSF, 2 μM pMHC, 10mM HEPES pH 7.4, 150 mM NaCl, SYPRO orange, 20–95°C in 1°C steps; representative (Fig 3B)
Procedure: as §1, §2, §3, §4

HLA-A*0301 [7] = biological target: T2, HLA-A*0301; test: Cell-based HLA class I-peptide concentration-based stability assay (TAP-deficient mono-allelic 721.221 cells)
Procedure: as §5

HIV A*03-restricted RK9 epitope ([…], Gag p17 20-28) (peptide)
percent stable HLA-peptide complexes on the surface after 4 h at 37°C with BFA [1]: 40% | Tm of the HLA-peptide complex [2]: 53 °C

HTQGYFPDW [HW9]
thermal stability (Tm) of HLA-B*5701-peptide complex (HLA-B*5701 [3]): 57 °C | Relative HLA MFI (10 uM) ([4]; peptide 10 uM): 0.6285 | Relative HLA MFI (100 uM) ([4]; peptide 100 uM): 1 | Relative HLA MFI (10 uM) (HLA-B*5701 [5]; peptide 10 uM): 0.3192 | Relative HLA MFI (100 uM) (HLA-B*5701 [5]; peptide 100 uM): 0.6623

RLAFHHVAR [RR9]
thermal stability (Tm) of HLA-A*0301-peptide complex (HLA-A*0301 [6]): 44 °C | Relative HLA MFI (10 uM) (HLA-A*0301 [7]; HLA A*03 mono-allelic TAP-deficient 721.221 cells, peptide 10 uM, relative anti-HLA MFI): 0.003513 | Relative HLA MFI (100 uM) (HLA-A*0301 [7]; HLA A*03 mono-allelic TAP-deficient 721.221 cells, peptide 100 uM, relative anti-HLA MFI): 0.03204 | anti-HLA MFI (HLA-A*0301 surface stabilization) (HLA-A*0301 [7]; HLA-A*0301 + sgRNA TAP cells (Fig 3A), peptide concentration not given): 123
